The source of these data is patent publication US20060045953A1 (priority 2004, published 2006).

pEC50: −log10 of the molar value. Like-named read-outs stand apart in the source and are kept apart here.

The target of this assay is T1, hT1R1/hT1R3 umami receptor (Homo sapiens, UniProt Q7RTX0+Q7RTX1).
T1 construct: expressed in transfected cells; host or cells: HEK293 derivative stably expressing Gα15, clone I-17, expression induced with mifepristone
T1 sequence (Q7RTX1 21-841): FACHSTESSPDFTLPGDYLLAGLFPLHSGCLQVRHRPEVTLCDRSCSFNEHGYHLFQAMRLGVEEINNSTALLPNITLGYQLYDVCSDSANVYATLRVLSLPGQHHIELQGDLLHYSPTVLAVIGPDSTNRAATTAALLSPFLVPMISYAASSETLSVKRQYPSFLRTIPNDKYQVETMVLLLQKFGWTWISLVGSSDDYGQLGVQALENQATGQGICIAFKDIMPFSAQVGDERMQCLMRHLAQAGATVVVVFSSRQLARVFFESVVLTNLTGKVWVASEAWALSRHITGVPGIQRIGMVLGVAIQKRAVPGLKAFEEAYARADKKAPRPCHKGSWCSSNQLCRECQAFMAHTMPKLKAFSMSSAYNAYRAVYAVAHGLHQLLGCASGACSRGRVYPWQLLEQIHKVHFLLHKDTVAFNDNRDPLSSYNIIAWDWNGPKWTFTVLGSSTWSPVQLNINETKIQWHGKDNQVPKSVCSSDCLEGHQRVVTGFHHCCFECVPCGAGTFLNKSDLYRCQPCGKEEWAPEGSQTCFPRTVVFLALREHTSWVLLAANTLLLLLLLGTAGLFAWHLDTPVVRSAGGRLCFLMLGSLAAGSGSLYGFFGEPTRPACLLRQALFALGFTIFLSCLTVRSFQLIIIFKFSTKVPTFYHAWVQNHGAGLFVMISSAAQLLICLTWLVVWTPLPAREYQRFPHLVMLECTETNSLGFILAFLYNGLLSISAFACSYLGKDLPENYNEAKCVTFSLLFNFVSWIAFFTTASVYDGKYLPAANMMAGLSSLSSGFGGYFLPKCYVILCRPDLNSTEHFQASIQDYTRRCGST
T1 sequence (Q7RTX0 21-852): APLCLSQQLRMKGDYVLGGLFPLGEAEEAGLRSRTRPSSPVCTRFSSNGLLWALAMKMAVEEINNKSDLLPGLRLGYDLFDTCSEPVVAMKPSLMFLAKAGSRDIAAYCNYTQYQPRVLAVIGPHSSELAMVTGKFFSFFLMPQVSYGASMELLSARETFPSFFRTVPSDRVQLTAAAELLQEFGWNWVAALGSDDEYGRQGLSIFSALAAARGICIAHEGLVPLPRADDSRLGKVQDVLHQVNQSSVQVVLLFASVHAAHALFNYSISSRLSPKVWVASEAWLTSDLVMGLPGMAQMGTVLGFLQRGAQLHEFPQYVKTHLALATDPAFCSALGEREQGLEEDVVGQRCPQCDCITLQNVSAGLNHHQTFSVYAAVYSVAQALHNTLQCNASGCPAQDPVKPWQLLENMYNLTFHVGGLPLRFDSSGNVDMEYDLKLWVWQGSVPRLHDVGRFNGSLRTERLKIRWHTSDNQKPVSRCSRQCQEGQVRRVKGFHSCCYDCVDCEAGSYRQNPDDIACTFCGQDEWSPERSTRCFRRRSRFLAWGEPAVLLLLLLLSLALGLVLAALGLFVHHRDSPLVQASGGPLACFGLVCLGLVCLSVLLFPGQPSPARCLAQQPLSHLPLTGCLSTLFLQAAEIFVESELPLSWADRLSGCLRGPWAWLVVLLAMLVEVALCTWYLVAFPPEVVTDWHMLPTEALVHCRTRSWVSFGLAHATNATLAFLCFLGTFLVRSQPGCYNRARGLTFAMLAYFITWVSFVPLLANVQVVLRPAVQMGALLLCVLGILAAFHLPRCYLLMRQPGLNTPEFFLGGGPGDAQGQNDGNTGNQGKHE
Put plainly: In vitro hT1R1/hT1R3 umami taste receptor activation assay (FLIPR, dose response). Format: cell-based.

Setting [1] is: Table A, Umami Amides, read-out: Umami EC50.
[2] abbreviates: opposite enantiomers compared, read-out: AFFINITY FOR T1R1/T1R3 SAVORY RECEPTOR EC50 UM.
The mark [3] stands for this setting: read-out: EC50 for activation of a hT1R1/hT1R3 umami receptor expressed in an HEK293 cell line.
The mark [4] stands for this setting: Table D, Umami Acrylamides, read-out: Umami EC50.

As for `CCOc1ccc(C(=O)N[C@H]2CCc3ccccc32)cc1C` [Example A113, (S)-N-(2,3-dihydro-1H-inden-1-yl)-4-ethoxy-3-methylbenzamide], under setting [1], the pEC50 is 6.07. As for `COc1ccc(C(=O)N[C@H]2CCc3ccccc32)cc1C` [drawing 26, (S)-N-(2,3-dihydro-1H-inden-1-yl)-4-methoxy-3-methylbeuzamide], under setting [2], the pEC50 is 7.10. In the case of `COc1cccc(C(=O)NC2CCCCC2C)c1N` (stereo not shown) [Example A125, 2-amino-3-methoxy-N-(2-methylcyclohexyl)benzamide], the pEC50 under setting [1] is 7.70. As for `CCCC(CC(C)C)NC(=O)c1ccc2nc(C)oc2c1` (stereo not shown) [Example A24, 2-methyl-N-(2-methylheptan-4-yl)benzo[d]oxazole-6-carboxamide], the pEC50 under setting [1] was 5.95. For the compound `CCCC(CC(C)C)NC(=O)c1ccc(C)c(C)c1` (stereo not shown) [Example 69, 3,4-dimethyl-N-(2-methylheptan-4-yl)benzamide], the pEC50 under setting [3] was 6.89.

Consider `COc1ccc(/C=C/C(=O)N[C@@H](CO)Cc2ccccc2)cc1` [Example 81, N-(1-Benzyl-2-hydroxy-ethyl)-3-(4-methoxy-phenyl)-acrylamide], for which the pEC50 under setting [3] is 5.96. For `COc1cccc(C(=O)N[C@H]2CCCc3ccccc32)c1N`, under setting [2], the pEC50 is 8.00.

As for `CCCC(CCC)NC(=O)c1ccc(OCC)c(C)c1` [Example 56, 4-ethoxy-N-(heptan-4-yl)-3-methylbenzamide], the pEC50 under setting [3] was 6.77. As for `COC(=O)[C@@H](CC(C)C)NC(=O)c1ccc2oc(C)nc2c1` [Example A28, (R)-4-Methyl-2-[(2-methyl-benzooxazole-5-carbonyl)-amino]-pentanoic acid methyl ester], the pEC50 under setting [1] was 5.77.

Turning to `COc1cccc(C(=O)N[C@@H]2CCCc3ccccc32)c1N` [Example A108, (R)-2-amino-3-methoxy-N-(1,2,3,4-tetrahydronaplithalen-1-yl)benzamide], the pEC50 under setting [1] is 7.05.

As to `CCCC(CC)NC(=O)c1cc2cc(C)ccc2o1` (stereo not shown) [Example 28, N-(hexan-3-yl)-5-methylbenzofuran-2-carboxamide], the pEC50 under setting [3] is 6.13. On to `COC(=O)C(CC(C)C)NC(=O)c1cc2cc(OC)ccc2o1` (stereo in doubt) [Example A6, 2-[(5-Methoxy-benzofuran-2-carbonyl)-amino]-4-methyl-pentanoic acid methyl ester], for which, under setting [1], the pEC50 is 6.49. Take `COC(=O)[C@@H](CC(C)C)NC(=O)c1cc2cc(Cl)ccc2o1` [Example 32]: the pEC50 under setting [3] was 6.09. Consider `CC(C)/C=C/C(=O)NC1CCCCC1C` (stereo not shown) [Example D12, (E)-4-methyl-N-(2-methylcyclohexyl)pent-2-enamide], for which the pEC50 under setting [4] was 5.89.

For `CCCC(CCC)NC(=O)c1cc2cc(OC)ccc2o1` [Example A10, N-(heptan-4-yl)-5-methoxybenzofuran-2-carboxamide], the pEC50 under setting [1] is 6.04. Take `COC(=O)[C@@H](CC(C)C)NC(=O)c1cc2cc(C)ccc2o1` [Example 27, (R)-methyl 4-methyl-2-(5-methylbenzofuran-2-carboxamido)pentanoate]: the pEC50 under setting [3] is 6.96. On to `COC[C@@H](CC(C)C)NC(=O)c1cc2cc(OC)ccc2o1` [Example A7, (R)-5-methoxy-N-(1-methoxy-4-methylpentan-2-yl)benzofuran-2-carboxamide], for which the pEC50 under setting [1] is 6.34. For the compound `COc1ccc(CNC(=O)C(=O)NC(C)Cc2ccccn2)c(OC)c1` (stereo not shown) [Example 143, N-(2,4-Dimethoxybenzyl)-N′-(1-(Pyridin-2-yl)propan-2-yl)oxalamide], under setting [3], the pEC50 was 6.40. Consider `CCC/C=C\C(=O)NC(CCC)CCC` [Example D9, (Z)-N-(heptan-4-yl)hex-2-enamide], for which the pEC50 under setting [4] was 6.01. In the case of `COC(=O)[C@@H](CC(C)C)NC(=O)c1cccc(C)c1` [Example A99, (R)-methyl 4-methyl-2-(3-methylbenzamido)pentanoate], the pEC50 under setting [1] is 6.05.

With `CCCC(CCC)NC(=O)c1ccc2c(c1)OC(C(C)C)O2` (stereo not shown) [Example 21, N-(heptan-4-yl)-2-isopropylbenzo[d][1,3]dioxole-5-carboxamide], the pEC50 under setting [3] was 4.94.

In the case of `COC[C@@H](CC(C)C)NC(=O)/C=C/c1ccc(OC)cc1` [Example 80, N-(1-Methoxymethyl-3-methyl-butyl)-3-(4-methoxy-phenyl)-acrylamide], the pEC50 under setting [3] was 6.05. Consider `CCCC(CCC)NC(=O)c1ccc2c(c1)NCCC2` [Example A119, N-(heptan-4-yl)-1,2,3,4-tetrahydroguinoline-7-carboxamide], for which, under setting [1], the pEC50 was 7.30.

For `COc1cccc(C(=O)N[C@H]2CCCc3ccccc32)c1O` [Example A93, (S)-2-hydroxy-3-methoxy-N-(1,2,3,4-tetrahydronaphthalen-1-yl)benzamide], under setting [1], the pEC50 was 6.15. As to `COc1ccc(C(=O)N[C@H](C)c2ccccc2)cc1Cl` [Example 63, (R)-3-chloro-4-methoxy-N-(1-phenylethyl)benzamide], under setting [3], the pEC50 is 5.60.

In the case of `CCCC(CCC)NC(=O)c1cc2cccc(OC)c2o1` [Example A130, N-(heptan-4-yl)-7-methoxybenzofuran-2-carboxamide], under setting [1], the pEC50 was 6.80. Regarding `COC(=O)[C@@H](CC(C)C)NC(=O)c1ccc(SC)cc1` [Example 50, (R)-methyl 4-methyl-2-(4-(methylthio)benzamido)pentanoate], the pEC50 under setting [3] is 6.80.

Consider `CCCC(CCC)NC(=O)c1ccc(Cl)c(C)c1` [Example 64, 4-Chloro-3-methyl-N-(1-propyl-butyl)-benzamide], for which the pEC50 under setting [3] was 6.10.
